Test [1] has as its target T1, NAD-dependent protein deacetylase sirtuin-2 (Homo sapiens, UniProt Q8IXJ6).
T1 sequence (Q8IXJ6 whole entry): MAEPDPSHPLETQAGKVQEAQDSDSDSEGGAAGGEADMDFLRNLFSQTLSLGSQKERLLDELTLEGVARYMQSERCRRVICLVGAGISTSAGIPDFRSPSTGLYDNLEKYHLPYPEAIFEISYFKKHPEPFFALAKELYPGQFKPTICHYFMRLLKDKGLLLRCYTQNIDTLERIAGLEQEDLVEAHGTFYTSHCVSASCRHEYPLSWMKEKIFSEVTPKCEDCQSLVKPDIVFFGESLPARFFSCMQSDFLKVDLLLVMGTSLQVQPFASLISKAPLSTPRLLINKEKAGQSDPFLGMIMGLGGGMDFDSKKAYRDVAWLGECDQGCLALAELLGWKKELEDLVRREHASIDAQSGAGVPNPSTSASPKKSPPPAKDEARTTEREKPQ
Nature of the test: Inhibition of N-terminal his6-tagged human SIRT2 (25 to 389 amino acids) using ZMAL as substrate after 4 hrs by fluorescence-based microplate reader method.

In test [2] the target is T2, NAD-dependent protein deacetylase sirtuin-1 (Homo sapiens) (UniProt Q96EB6).
T2 sequence (whole entry): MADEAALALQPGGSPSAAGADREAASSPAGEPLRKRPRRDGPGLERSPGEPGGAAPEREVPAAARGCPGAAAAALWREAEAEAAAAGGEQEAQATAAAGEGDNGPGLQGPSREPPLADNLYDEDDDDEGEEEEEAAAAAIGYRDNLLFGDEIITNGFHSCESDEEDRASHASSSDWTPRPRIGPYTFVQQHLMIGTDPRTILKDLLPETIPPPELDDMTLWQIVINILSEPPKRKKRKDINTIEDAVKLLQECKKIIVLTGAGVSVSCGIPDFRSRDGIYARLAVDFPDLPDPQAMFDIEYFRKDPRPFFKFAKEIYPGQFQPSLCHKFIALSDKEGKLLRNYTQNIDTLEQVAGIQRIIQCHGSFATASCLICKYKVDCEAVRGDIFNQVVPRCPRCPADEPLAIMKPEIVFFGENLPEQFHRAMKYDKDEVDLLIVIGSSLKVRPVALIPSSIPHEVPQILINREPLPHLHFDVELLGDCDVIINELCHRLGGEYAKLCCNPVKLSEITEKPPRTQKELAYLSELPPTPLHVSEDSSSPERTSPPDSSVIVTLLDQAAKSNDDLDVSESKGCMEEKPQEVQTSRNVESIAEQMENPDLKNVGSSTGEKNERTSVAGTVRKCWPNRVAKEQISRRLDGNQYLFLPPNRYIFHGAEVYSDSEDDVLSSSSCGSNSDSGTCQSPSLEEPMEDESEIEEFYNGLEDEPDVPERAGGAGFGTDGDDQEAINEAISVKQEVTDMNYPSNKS
Nature of the test: Inhibition of GST-tagged human SIRT1 (133 to 747 amino acids) using ZMAL as substrate at 200 uM after 4 hrs by fluorescence-based microplate reader method.

Consider 27 compounds from ChEMBL document CHEMBL3769317, “Aminothiazoles as Potent and Selective Sirt2 Inhibitors: A Structure-Activity Relationship Study” (J Med Chem, 2016).

As to `COc1ccc(Cc2cnc(NC(=O)C(C)Sc3nc(C)cc(C)n3)s2)cc1` (racemic), in test [1], the IC50 was determined as 14.6 µM. The compound further had an inhibition in test [2] of 27%.
For `CCC(Sc1nc(C)cc(C)n1)C(=O)Nc1ncc(Cc2cccc3ccccc23)s1` (racemic), in test [1], the IC50 was found to be 0.54 µM. This compound gave an inhibition in test [2] of 35%.
Consider `Cc1cc(C)nc(SCC(=O)N(C)c2ncc(Cc3cccc4ccccc34)s2)n1`, for which, in test [1], the IC50 is above 100 µM. The inhibition in test [2] was below 10%.
`CCOc1ccc2nc(NC(=O)CSc3nc(C)cc(C)n3)sc2c1` registered an IC50 in test [1] of 77.8 µM. This compound displayed an inhibition in test [2] of 16%.
`Cc1cc(C)nc(S[C@@H](C)C(=O)Nc2ncc(Cc3cccc4ccccc34)s2)n1` had an IC50 in test [1] of 0.26 µM. In addition, in test [2], the inhibition is below 10%.
For `O=C(CSc1cccc(O)c1)Nc1ncc(Cc2cccc3ccccc23)s1` the same measures were 143 µM and below 10%.
`O=C(CSc1ncccn1)Nc1ncc(Cc2ccccc2)s1`: the inhibition in test [2] is 12%.
As for `Cc1cc(C)nc(SCC(=O)Nc2nnc(Cc3ccc(Cl)cc3)s2)n1`, in test [1], the IC50 was 30.9 µM. Besides, in test [2], the inhibition was below 10%.
The compound `Cc1cccc(Cc2cnc(NC(=O)CSc3nc(C)cc(C)n3)s2)c1` displayed an IC50 in test [1] of 1.64 µM. In test [2], this compound showed an inhibition of 18%.
For `Cc1cc(C)nc(SCC(=O)Nc2ncc(Cc3c(C)ccc4ccccc34)s2)n1` the same measures were 0.31 µM and below 10%.
For `NC(=O)c1ccc[n+](CC(=O)Nc2ncc(Cc3cccc4ccccc34)s2)c1` the same measures were 289 µM and 39%.
Compound `CCOc1cccc(Cc2cnc(NC(=O)CSc3nc(C)cc(C)n3)s2)c1` yielded an IC50 in test [1] of 1.33 µM. The compound further showed an inhibition in test [2] below 10%.
For `Cc1cc(C)nc(SCC(=O)Nc2nnc(Cc3cccc4ccccc34)s2)n1` the same measures were 1.89 µM and below 10%.
For `Cc1cc(C)nc(SC(C)C(=O)Nc2ncc(Cc3cccc4ccccc34)s2)n1` (racemic) the same measures were 0.42 µM and 17%.
For `Cc1cc(C)nc(SCC(=O)Nc2ncc(Cc3ccc(-c4ccccc4)cc3)s2)n1` the same measures were 164 µM and 29%.
For the compound `Cc1cc(C)nc(SC(C)C(=O)Nc2ncc(Cc3cccc4ccc(Cl)cc34)s2)n1` (racemic), the IC50 in test [1] is 0.54 µM. The inhibition in test [2] is below 10%.
For `Cc1cc(C)nc(SCC(=O)Nc2ncc(Cc3ccc(Cl)cc3)s2)n1` the same measures were 3.4 µM and below 10%.
For `Cc1cc(C)nc(SCC(=O)Nc2ncc(Cc3cccc4ccc(Br)cc34)s2)n1` the same measures were 0.21 µM and below 10%.
Compound `Cc1nc(SCC(=O)Nc2ncc(Cc3cccc4ccccc34)s2)nc(C)c1C` displayed a half-maximal inhibitory concentration (IC50) in test [1] of 15 µM. The inhibition in test [2] is below 10%.
For `CCc1cc(CC)nc(SCC(=O)Nc2ncc(Cc3cccc4ccccc34)s2)n1` the same measures were 45.6 µM and below 10%.
Turning to `Cc1cc(C)nc(S[C@H](C)C(=O)Nc2ncc(Cc3cccc4ccccc34)s2)n1`, the IC50 in test [1] turned out to be 9.77 µM. This compound also came in with an inhibition in test [2] below 10%.
In the case of `Cc1cc(C)nc(SCC(=O)Nc2ncc(Cc3ccc4ccccc4c3)s2)n1`, the inhibition in test [2] was below 10%.
`Cc1cc(C)nc(SC(C)C(=O)Nc2ncc(Cc3ccc(-c4ccccc4)cc3)s2)n1` (racemic) displayed an IC50 in test [1] of 33 µM. This compound gave an inhibition in test [2] of 14%.
For `Cc1ccc(Cc2cnc(NC(=O)CSc3nc(C)cc(C)n3)s2)cc1` the same measures were 4.72 µM and 16%.
For `Cc1cc(C)nc(SCC(=O)Nc2ncc(C(=O)Nc3cccc4ccccc34)s2)n1` the same measures were 33 µM and below 10%.
In test [1], `CCCc1cc(O)nc(SCC(=O)Nc2ncc(Cc3cccc4ccccc34)s2)n1` gave an IC50 of 127 µM. The compound also registered an inhibition in test [2] of 22%.
For `O=C(CSc1ncccn1)Nc1ncc(Cc2cccc3ccccc23)s1` the same measures were 2.34 µM and 17%.

As usually defined, the IC50 is the concentration needed to halve the response being measured. Higher therefore signals weaker potency. By inhibition is commonly meant how much of the control response was suppressed. A low value points to a response near the control.
